Patent US12116343B2, “Inhibitors of APOL1 and methods of using same” (Vertex Pharmaceuticals Incorporated, priority 2020, dated 2024)
pIC50: −log10 of the molar value.

Target: T1, G1 APOL1 (Homo sapiens, UniProt O14791, I384M/S342G)
T1 construct: expressed in transfected cells
T1 sequence (O14791 28-398 S342G/I384M): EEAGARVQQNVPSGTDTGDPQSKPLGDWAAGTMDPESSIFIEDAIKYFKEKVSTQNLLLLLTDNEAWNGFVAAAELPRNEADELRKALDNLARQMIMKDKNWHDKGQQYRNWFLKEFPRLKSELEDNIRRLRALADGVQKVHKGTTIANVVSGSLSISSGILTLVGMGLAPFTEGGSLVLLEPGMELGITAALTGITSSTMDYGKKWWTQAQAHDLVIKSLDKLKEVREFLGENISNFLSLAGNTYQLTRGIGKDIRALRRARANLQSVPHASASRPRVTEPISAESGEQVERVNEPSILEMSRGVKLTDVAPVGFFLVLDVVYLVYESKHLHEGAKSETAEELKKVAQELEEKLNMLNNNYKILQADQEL
Assay: Acute APOL1 Thallium Assay with inducible stable clones of HEK 293 cells
Format: cell-based
Settings: HEK 293 T-Rex cells expressing G1 APOL1; read-out: Thallium Assay (IC50)
How it was run: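 Tetracycline-inducible HEK293 T-Rex clone G1 DC3.25 expressing G1 APOL1, plated at 26000 cells/well in Opti-MEM with tetracycline induction. APOL1 pore activity read on FLIPR as fluorescence increase from Tl+ influx into cells loaded with a Tl+-sensitive AM-ester dye.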

pIC50	Compound
< 6.00	O=C(N[C@@H]1CCC[C@@H]1O)[C@H]1C[C@H](c2c(-c3ccc(F)cc3)[nH]c3c(F)cc(F)cc32)C1 [Compound 179]
6.00 to 6.60	CS(=O)(=O)CCNC(=O)[C@H]1C[C@H](c2c(-c3ccc(F)cc3)[nH]c3c(F)cc(F)cc32)C1 [Compound 40]
< 6.00	O=C(N[C@@H]1CCC[C@H]1O)[C@H]1C[C@H](c2c(-c3ccc(F)cc3)[nH]c3c(F)cc(F)cc32)C1 [Compound 182]
> 6.60	NC(=O)[C@@H](CO)NC(=O)[C@H]1C[C@H](c2c(-c3ccc(F)cc3)[nH]c3c(F)cc(F)cc32)C1 [Compound 221]
< 6.00	O=C(NCCn1cnnc1)[C@H]1C[C@H](c2c(-c3ccc(F)cc3)[nH]c3c(F)cc(F)cc32)C1 [Compound 39]
6.00 to 6.60	CC1(NC(=O)[C@H]2C[C@H](c3c(-c4ccc(F)cc4)[nH]c4c(F)cc(F)cc43)C2)CCNC1=O (mixture of isomers) [Compound 197]
6.00 to 6.60	Cc1nnc(CNC(=O)[C@H]2C[C@H](c3c(-c4ccc(F)cc4)[nH]c4c(F)cc(F)cc43)C2)o1 [Compound 172]
< 6.00	CC1CC(NC(=O)[C@H]2C[C@H](c3c(-c4ccc(F)cc4)[nH]c4c(F)cc(F)cc43)C2)C(=O)O1 (stereo partly shown) [Compound 207]
< 6.00	O=C([C@H]1C[C@H](c2c(-c3ccc(F)cc3)[nH]c3c(F)cc(F)cc32)C1)N1CCC[C@H]1CO [Compound 210]
6.00 to 6.60	CC[C@H](CO)NC(=O)[C@H]1C[C@H](c2c(-c3ccc(F)cc3)[nH]c3c(F)cc(F)cc32)C1 [Compound 203]
6.00 to 6.60	O=C(N[C@@H]1CCOC1)[C@H]1C[C@H](c2c(-c3ccc(F)cc3)[nH]c3c(F)cc(F)cc32)C1 [Compound 19]
< 6.00	Cn1cncc1CNC(=O)[C@H]1C[C@H](c2c(-c3ccc(F)cc3)[nH]c3c(F)cc(F)cc32)C1 [Compound 174]
< 6.00	CN(C(=O)[C@H]1C[C@H](c2c(-c3ccc(F)cc3)[nH]c3c(F)cc(F)cc32)C1)C1COCC1O (stereo partly shown) [Compound 205]
6.00 to 6.60	CC[C@@H](CO)NC(=O)[C@H]1C[C@H](c2c(-c3ccc(F)cc3)[nH]c3c(F)cc(F)cc32)C1 [Compound 204]
< 6.00	Cc1cc(CNC(=O)[C@H]2C[C@H](c3c(-c4ccc(F)cc4)[nH]c4c(F)cc(F)cc43)C2)on1 [Compound 37]
6.00 to 6.60	O=C(N[C@H]1CC[C@H]1O)[C@H]1C[C@H](c2c(-c3ccc(F)cc3)[nH]c3c(F)cc(F)cc32)C1 [Compound 181]
6.00 to 6.60	O=C(NC(CO)C1CC1)[C@H]1C[C@H](c2c(-c3ccc(F)cc3)[nH]c3c(F)cc(F)cc32)C1 (stereo partly shown) [Compound 199]
< 6.00	O=C(NC[C@@H](O)CO)[C@H]1C[C@H](c2c(-c3ccc(F)cc3)[nH]c3c(F)cc(F)cc32)C1 [Compound 224]
> 6.60	N#CC(CO)NC(=O)[C@H]1C[C@H](c2c(-c3ccc(F)cc3)[nH]c3c(F)cc(F)cc32)C1 (stereo partly shown) [Compound 201]
